Experimental data from US7915267B2, “Heterocyclic amide compound and use thereof” (Takeda Pharmaceutical Company Limited, priority 2005, dated 2011).

Molecular target: T1, MMP-13 (Homo sapiens, UniProt P45452)
T1 construct: purchased GenzymeTechne
Assay: MMP-13 inhibitory activity (fluorogenic substrate Cy3-PLGLK(Cy5Q)AR-NH2 enzyme assay)
Type: biochemical
Details: compound 1 μM; 37° C., 40 min; APMA-activated MMP-13 precursor; read-out: MMP-13 inhibitory rate (%) at 1 μM
Experimental: To 10 μg of MMP-13 precursor (GenzymeTechne) was added 1 ml of assay buffer (50 mM Tris-HCl (pH 7.5), 10 mM CaCl2, 150 mM NaCl, 0.05% Brij-35), and 4-aminophenylmercuric acid (Sigma) was added to the final concentration of 1 mM. The MMP-13 precursor was activated by incubating at 37° C. for 2 hr.
In a 96 well black plate (Corning), to 6.3 ng/ml of MMP-13 solution (49 μl) diluted with assay buffer was added the test compound (1 μl) diluted with dimethyl sulfoxide (DMSO) and 620 nM Cy3-PLGLK(Cy5Q)AR-NH2 (50 μl, synthesized by Amersham Biosciences) in assay buffer was added to start the enzyme reaction. After incubation at 37° C. for 40 min, 500 mM EDTA solution (6 μl) was added to stop the reaction. For measurement, Farcyte (Amersham Biosciences) was used to measure at excitation wavelength 535 nm and measurement wavelength 595 nm.
T: value of well with addition of DMSO instead of test compound
C: value of well with addition of DMSO instead of test compound and addition of EDTA solution before addition of substrate solution
X: value of well with addition of test compound

inhibition at 1 µM [%]	SMILES
94	O=C(CCCOc1cccc(CNC(=O)c2nc3ccccc3c(=O)[nH]2)c1)Nc1nc[nH]n1 [Example 40, 4-oxo-N-[(3-{[4-oxo-4-(1H-1,2,4-triazol-3-ylamino)butyl]oxy}phenyl)methyl]-3,4-dihydroquinazoline-2-carboxamide]
99	O=C(NCc1cccc(OCCSc2nc[nH]n2)c1)c1nc2ccc(F)c(F)c2c(=O)[nH]1 [Example 8, 5,6-difluoro-4-oxo-N-[(3-{[2-(1H-1,2,4-triazol-3-ylthio)ethyl]oxy}phenyl)methyl]-3,4-dihydroquinazoline-2-carboxamide]
96	N#Cc1ccc2nc(C(=O)NCc3ccnc(OCCCc4nc[nH]n4)c3)[nH]c(=O)c2c1 [Example 23, 6-cyano-4-oxo-N-[(2-{[3-(1H-1,2,4-triazol-3-yl)propyl]oxy}pyridin-4-yl)methyl]-3,4-dihydroquinazoline-2-carboxamide]
97	Cc1cc2c(=O)[nH]c(C(=O)NCc3cccc(OCCSc4nc[nH]n4)c3)nc2s1 [Example 13, 6-methyl-4-oxo-N-[(3-{[2-(1H-1,2,4-triazol-3-ylthio)ethyl]oxy}phenyl)methyl]-3,4-dihydrothieno[2,3-d]pyrimidine-2-carboxamide]
